Key:
[1] = rats, oral, 'raw' edaravone suspended with 0.5% CMC-Na, vs 100% intravenous; cited from earlier work
[2] = Single dose, randomized, two-period cross-over study, oral solution 140 mg vs i.v. 60 mg, plasma pharmacokinetics; format: in vivo; settings: human
Procedure: A single dose, randomized, two-period, cross-over study was conducted in 18 healthy male and female human subjects.

[3] = Single 60 mg dose of Radicut edaravone solution, oral and i.v. infusion, plasma pharmacokinetics in dogs; format: in vivo; settings: male, beagle, dog; for concentration at […]: 0.25 hrs
[4] = Rate of dissolution of edaravone in water; format: physicochemical; settings: in the presence of an alkalizing agent
[5] = Single 60 mg dose of Radicut edaravone solution, oral and i.v. infusion, plasma pharmacokinetics in dogs; format: in vivo; settings: male, beagle, dog, iv, i.v. infusion 60 mg (15 min)
Procedure: The study was conducted in a group of 4 male beagle dogs. […] After a wash-out period of 2 days, the animals received an intravenous infusion of two Radicut® ampoules (15 minutes infusion time).

[6] = ALS patients, Week 24; cited from earlier work
[7] = both sexes, plasma, iv, i.v. infusion 60 mg (60 minutes)
[8] = both sexes, plasma, iv, i.v. infusion (60 mg, 60 minutes)
[9] = both sexes, plasma, oral administration 140 mg
[10] = both sexes, plasma, oral administration (140 mg)
[11] = iv, i.v. infusion 60 mg (15 min)

Q: Which results are given for `CC1=NN(c2ccccc2)C(=O)C1` [edaravone, 3-methyl-1-phenyl-2-pyrazolin-5-one]?
A: absolute bioavailability (Fabs) [1]: 5.23%; bioavailability ([2]; both sexes, plasma, oral, 140 mg, oral aqueous solution 140 mg compared to i.v. infusion 60 mg, read-out: systemic / absolute bioavailability (Fabs)): ~80%; AUC(0-inf) [2, 7]: 1300 ng·h/mL; AUC(0-t) [2, 7]: 1290 ng·h/mL; Cmax [2, 7]: 1030 ng/mL; Tmax [2, 7]: 60 min; concentration at 0.17 h [2, 8]: 380 ng/mL; concentration at 0.5 h [2, 8]: 713 ng/mL; concentration at 1 h [2, 8]: 990 ng/mL; concentration at 1.5 h [2, 8]: 321 ng/mL; concentration at 4 h [2, 8]: 42 ng/mL; concentration at 6 h [2, 8]: 14 ng/mL; concentration at 8 h [2, 8]: 8 ng/mL; concentration at 10 h [2, 8]: 5 ng/mL; AUC(0-inf) [2, 9]: 2410 ng·h/mL; AUC(0-t) [2, 9]: 2390 ng·h/mL; Cmax [2, 9]: 2940 ng/mL; concentration at 0.083 h ([2]; both sexes, plasma, oral administration (140 mg), 0.083 hrs): 1200 ng/mL; concentration at 0.17 h [2, 10]: 2360 ng/mL; concentration at […] ([2]; both sexes, plasma, oral administration (140 mg), 0.25 hrs): 2630 ng/mL; concentration at 0.5 h [2, 10]: 1810 ng/mL; concentration at 1 h [2, 10]: 689 ng/mL; concentration at 1.5 h [2, 10]: 354 ng/mL; concentration at 2 h ([2]; both sexes, plasma, oral administration (140 mg), 2 hrs): 203 ng/mL; concentration at 4 h [2, 10]: 68 ng/mL; concentration at 6 h [2, 10]: 24 ng/mL; concentration at 8 h [2, 10]: 13 ng/mL; concentration at 10 h [2, 10]: 9 ng/mL; time to peak maximum concentration after administration ([2]; oral administration 140 mg): about 15 min; bioavailability ([3]; oral 60 mg compared to iv infusion, read-out: systemic bioavailability (Fabs)): 34%; AUC(0-inf) ([3]; oral administration 60 mg): 553 ng·h/mL; AUC(0-t) ([3]; oral administration 60 mg): 542 ng·h/mL; Cmax ([3]; oral administration 60 mg): 2310 ng/mL; concentration at 0.083 h ([3]; oral administration 60 mg, 0.083 hrs): 2310 ng/mL; concentration at 0.17 h ([3]; oral administration 60 mg, 0.17 hrs): 994 ng/mL; concentration at […] ([3]; oral administration 60 mg): 491 ng/mL; concentration at 0.5 h ([3]; oral administration 60 mg, 0.5 hrs): 185 ng/mL; concentration at 1 h ([3]; oral administration 60 mg, 1 hrs): 84 ng/mL; concentration at 1.5 h ([3]; oral administration 60 mg, 1.5 hrs): 51 ng/mL; concentration at 2 h ([3]; oral administration 60 mg, 2 hrs): 36 ng/mL; concentration at 4 h ([3]; oral administration 60 mg, 4 hrs): 11 ng/mL; concentration at 6 h ([3]; oral administration 60 mg, 6 hrs): 5 ng/mL; Tmax ([3]; po, 60 mg, oral administration 60 mg): ~5 min; AUC(0-inf) [3, 11]: 1630 ng·h/mL; AUC(0-t) [3, 11]: 1600 ng·h/mL; Cmax [3, 11]: 4380 ng/mL; concentration at […] [3, 11]: 4380 ng/mL; concentration at 10 h ([3]; iv, i.v. infusion 60 mg (15 min), 10 hrs): 5 ng/mL; rate at which edaravone dissolves in water [4]: increased substantially; Tmax ([5]; 60 mg): 15 min; concentration at 0.083 h ([5]; 0.083 hrs): 3060 ng/mL; concentration at 0.5 h ([5]; 0.5 hrs): 648 ng/mL; concentration at 1 h ([5]; 1 hrs): 140 ng/mL; concentration at 2 h ([5]; 2 hrs): 49 ng/mL; concentration at 4 h ([5]; 4 hrs): 17 ng/mL; concentration at 8 h ([5]; 8 hrs): 6 ng/mL; decline on a clinical assessment of daily functioning compared to placebo [6]: declined less
